{"source": "patent US5215520A", "about": "“Method for delivering an active substance topically or percutaneously” (Centre Internationale de Recherches Dermatologiques …, priority 1991, dated 1993)", "key": {"[1]": {"test": "Pharmacokinetic profile: blood and urine levels after single intravenous injection", "type": "in vivo, hairless female rats", "protocol": "Prior to the in vivo experiments, a study was carried out to determine whether the levels of peptide in urine were significant. To this end, following a single intravenous injection of Thr-Lys-Pro, its levels in blood and urine were measured. This was carried out by an injection of 0.5 cm^3 of an aqueous solution containing 2 nmol/cm^3 of non-radiolabelled peptide and 5 μCi/cm^3 of radiolabelled peptide via the tail vein of five hairless female rats (198±12 g). The rats had been anaesthetised by an intraperitoneal injection of pentobarbital sodium (40 mg/kg). The rats were left in metabolic cages and blood samples were taken at 10, 15, 30 minutes and 1, 2, 3 and 24 hours following the peptide injection. Blood was removed from the retro-orbital sinus of the eye socket by capillary tube. The samples were weighed into a crucible (ashless paper) and allowed to dry overnight. The blood was then oxidized using a tri-carb oxidizer (model 306 sold by Packard Instrument Co. Inc.) and measured for radioactivity. Urine was collected from the cage after 24 hours and also measured for radioactivity."}, "[2]": {"conditions": "rat, in vivo", "procedure": "In these experiments, the levels of Thr-Lys-Pro peptide in urine following application of the peptide to the skin were measured.\nElectrodes (105, 106) (Ag/AgC1) were tightly fitted to the stoppers (103, 104) and became enclosed within the chambers (101 and 102) when the chambers were closed by replacing the stoppers. The distance between the bottom of the electrode after the stopper has been replaced and the bottom of the chamber is 0.3 cm. The skin surface contact area was 3.80 cm^2 and the axes of the chambers were 42 mm apart. The electrodes were connected to a source of electric current (E). To enable the various experiments to be performed, chambers (101 and 102) were fixed to the skin (S) using a cyanoacrylate glue. […]\nAfter 3 hours the electrodes were removed and the skin washed carefully with deionized water, then dried and stripped 5 times with adhesive tape (3M Co., St. Paul, Minn., U.S.A) and the strips discarded. […] The urine passed in the 24-hour period was collected and counted for radioactivity.\nIn the method of the invention, the skin was first subjected to 3 hours of electric current as in conventional iontophoresis, except that chamber 101 contained the gel of example 1 without peptide. […] The rats were then left as described previously in their metabolic cages for 24 hours and urine collected and measured for radioactivity. […]"}}, "data": [{"substance": "Thr-Lys-Pro", "values": [{"measurement": "quantity of peptide present in urine", "setting": "[1]; 24 hours after the intravenous injection, radioactivity", "result": "63.6±8 % of the injected dose"}, {"measurement": "quantity of peptide in the blood", "setting": "[1]; single intravenous injection, blood sampled 10 minutes to 24 hours", "result": "not detectable"}, {"measurement": "systemic absorption of peptide (total quantity in urine) vs passive method without current", "setting": "[2]", "result": "greater systemic absorption of peptides than the passive method without application of current"}]}]}
